US4837342A, “Prostacyclin analogue, and blood circulation improving agent and anti-ulcer composition containing it as active ingredient” (Sagami Chemical Research Center, priority 1986, dated 1989)

How the values were obtained:
[1] = test system: Blood platelet (ADP agglutination); assay: Blood platelet agglutination inhibiting activity (ADP-induced), washed rabbit platelet suspension; assay type: cell-based, rabbit (Japanese white male rabbits); conditions: Oryctolagus cuniculus, Platelet; ADP 10 μM; concentration suppressing agglutination to 50%; read-out: Platelet agglutination inhibiting activity ED50, ADP agglutination
Procedure: Blood platelet aggutination inhibiting activity
Japanese white male rabbits having a weight of from 2.0 to 2.5 kg were used.
Under anesthesia with sodium Pentobarbital, blood was sampled from the carotid artery, and mixed with a 1/7 volume of an anticoagulant citric acid dextrose solution. Then, the mixture was subjected to centrifugal separation at 140×g for 15 minutes, whereupon the supernatant (platelet rich plasma:PRP) was obtained. PRP was subjected to centrifugal separation at 1,300×g for 7 minutes. The blood platelet pellets thus obtained were washed with a HEPES buffer solution (pH 6.5) for washing blood platelets, and subjected to centrifugal separation at 1,300×g for 7 minutes. The blood platelet pellets washed twice under such condition, were suspended in a suspending liquid (a buffer solution for washing blood platelets, which contains 0.1% of human fibrinogen, 1.8 mM of CaCl2 and 1.2 mM of MgCl2) to obtain a blood platelet suspension having a concentration of from 5×10^8 to 8×10^8 platelets/ml.
The platelet agglutination ability was measured by means of an agglutination meter. To 380 μl of the platelet suspension, 10 μl of a test compound or a solvent as the control, was added. Three minutes later, 10 μl of a platelet agglutinating substance (10 μM of ADP or 1 μg/ml of collagen, as the final concentration) was added thereto to induce agglutination.
The blood platelet agglutination inhibiting activity of each test compound was represented by ED50 (i.e. the concentration of the test compound where the platelet agglutination is suppressed to 50%).

diastolic blood pressure [2] = assay: Hypotensive activity, anesthetized dog; assay type: in vivo, crossbred adult dog; conditions: Canis lupus familiaris, iv, read-out: Hypotensive activity ED50 (dose reducing diastolic blood pressure by 50 mmHg); heading: Hypotensive activity ED50; dog; femoral vein; Table 1
Procedure: A male or female crossbred adult dog having a weight of from 9 to 14 kg was anesthetized by intraveous administration of sodium Pentobarbital. Then, the left carotid was exposed under artificial respiration, and the blood pressure was measured by using an electric blood pressure meter. […]

Ethanol ulcer = Ethanol ulcer inhibiting activity; assay type: in vivo, Male wister rats; conditions: rat; oral administration of 30 μg/kg
Procedure: Ethanol ulcer inhibiting activity
Male wister rats having a weight of from 170 to 270 g were put into individual cages and starved for 24 hours. During this starvation period, the rats were allowed to drink water freely. A test compound or PGE2 as a comparative compound was orally administered in an amount of 3, 10 or 30 μg/kg, and 30 minutes later, 1 ml of 99.5% ethanol was orally administered to each rat. One hour after the ethanol administration, each rat was filled by cervical vertebral luxation, and the stomach was taken out. A 1% formaline solution was injected into the stomach in an amount of about 8 ml, and the stomach was fixed in the formaline solution for 30 minutes. After the fixing, the stomach was severed along the greater curvature, and the mucous membrane surface of the stomach was gently washed with flowing water. Then, the total length of damages appearing on the gastric glandular portion was obtained and used as the ulcer index.
The ethanol ulcer inhibiting activity of a test compound was represented by ED50 (i.e. the dose of the test compound at which the ulcer was inhibited by 50% relative to the ulcer index of the non-treated group). To the non-treated group, the solvent was administered.

Hydrochloric acid ulcer = Hydrochloric acid ulcer inhibiting activity; assay type: in vivo, wister rats; conditions: rat; oral administration of 30 μg/kg
Procedure: Hydrochloric acid ulcer inhibiting activity
Male wister […] having a weight of from 190 to 240 g were used. The rats were starved in the same manner as in Test Example 6, and the test compounds and PGE2 were, respectively, orally administered in an amount of 30 μg/kg, and 30 minutes later, 1 ml of 0.6N hydrochloric acid was orally administered. Thirty minutes after the hydrochloric acid administration, each rat was killed by cervical vertebral luxation. Then, the stomach was taken out and fixed, and the ulcer index was obtained, in the same manner as in Test Example 6. The hydrochloric acid ulcer inhibiting activity of a test compound was represented by the inhibiting percentage (i.e. the percentage of the ulcer index of the treated group to the ulcer index of the non-treated group). To the non-treated group, the solvent was administered.

diastolic blood pressure [3] = conditions: background statement; cited from earlier work
[4] = background; cited from earlier work

## CCCCC[C@H](O)/C=C/[C@@H]1[C@H]2C/C(=C/CCCC(=O)O)O[C@H]2C[C@H]1O [Prostacyclin, (5Z,13E)-(9α,11α,15S)-6,9-epoxy-11,15-dihydroxyprosta-5,13-diene acid]
[1]
  IC50: 2.9 nM
Diastolic blood pressure [2]
  ED (50 mmHg): 0.24 µg/kg
Ethanol ulcer
  Ethanol ulcer inhibition (in words): No inhibiting activity
Hydrochloric acid ulcer
  Hydrochloric acid ulcer inhibition (in words): No inhibiting activity
Diastolic blood pressure [3]
  Hypotensive activity of prostacyclin (in words): remarkable hypotensive activities
[4]
  Chemical stability (in words): very unstable
